# Measurements published in US20220008391A1, “NOVEL COMPOUNDS FOR CONTROLLING ARTHROPODS” (Bayer Animal Health GmbH, priority 2018, published 2022).
# Where two headings read alike, the source gives them in different places.
# Assays:
# [1] = Evaluation of pharmacokinetics (in vivo), dog; details: concentration of parent compound A
# Method: Evaluation of Pharmacokinetics (In Vivo) To evaluate the pharmacokinetics of test substances in vivo, these test substances are dissolved in appropriate formulation vehicles (ethanol, dimethyl sulfoxide, PEG400, glycerol formal etc.), or mixtures thereof. The test substances are then administered to rats or dogs intravenously, orally or subcutaneously. The intravenous application is performed as bolus. Administered doses range usually between 0.1 to 5 mg/kg, however, doses for subcutaneous and oral administration can exceed this range up to doses of 30 mg/kg. Blood samples are retrieved via a catheter, exsanguination or venous puncture in vials containing appropriate anticoagulants, such as lithium heparinate or potassium EDTA. Plasma is generated from the blood via centrifugation. Blood samples are taken over an appropriate time interval, usually lasting up to 144h after administration. If necessary, samples from later time points can also be taken. […] The quantitative measurement of the test substances in the samples is performed using calibration curves in the respective matrices. […] The evaluation of the plasma concentration/time profiles are afterwards evaluated using a validated pharmacokinetics evaluation program. […]
# Amblyomma americanum = experiment: Antiparasitic activity after administration to dogs, A. americanum ticks; type: in vivo; details: AA
# Method: (§1) Measurement of the Antiparasitic Activity after Administration of a Prodrug to Dogs
# (§2) Compounds were dissolved in the appropriate volume of glycerol formal (p.a.) just before application to the animals (dose volume was adjusted to 0.1 ml/kg bodyweight). Dogs were injected intravenously respective subcutaneously (see table 8 for details).
# (§3) Dogs were infested with ectoparasites according to table on study 1 day prior to counting for fleas, 2 days prior to counting for RS, IR, DV ticks and 3 days prior to counting for AA ticks. For this purpose, dogs were placed in an individually labeled box with grid windows. The ticks were released onto the back of the dogs and were allowed to disperse and move into the hair without disturbance. The dog remained in the box for approximately 120 minutes with the lid closed and the light switched off in the room. For flea infestations, flea containers were opened in the animal's cage and fleas were applied on the dog's back between the shoulders.
# (§4) Tick counts including removal of I. ricinus, R. sanguineus and D. variabilis were conducted 48(±4) hours after the infestation. Tick counts including removal of A. americanum were conducted 72(±4) hours after the infestation. Flea counts were conducted 24(±4) hours after the infestation.
# (§5) On each parasite assessment day percent efficacy was calculated as arithmetic mean parasite numbers as life attached and live free tick numbers and live flea numbers of the respective study group in comparison to parasite counts on a placebo non-treated control group.
# Rhipicephalus sanguineus = experiment: Antiparasitic activity after administration to dogs, R. sanguineus ticks; type: in vivo; details: RS
# Method: as §1, §2, §3, §4, §5
# Dermacentor variabilis [2] = experiment: Antiparasitic activity after administration to rats, tick nymphs; type: in vivo; details: Dermacentor variabilis, ip, 10 mg/kg, DV N
# Method: (§6) Measurement of the Antiparasitic Activity after Administration of a Prodrug to Rats Compounds were dissolved in the appropriate volume of glycerol formal (p.a.) just before application to the animals (dose volume was adjusted to 0.03 mL/kg bodyweight). 5 rats per group were either injected intraperitoneally or subcutaneously. Rats were infested with 30 Dermacentor variabilis nymphs on study days −2, 7, 14, 21, 28, 35 and 30 adult Ctenocephalides fleas on study days −1, 8, 15, 22, 29, 36. […] Percent efficacy was calculated as arithmetic mean parasite numbers as life attached tick numbers and live flea numbers of the respective study group in comparison to parasite counts on a placebo-treated control group. Infestation of groups with less than 75% efficacy on two consecutive counting occasions will terminated for the respective parasite.
# [3] = Evaluation of pharmacokinetics (in vivo), rat; details: concentration of parent compound A
# Method: Evaluation of Pharmacokinetics (In Vivo) To evaluate the pharmacokinetics of test substances in vivo, these test substances are dissolved in appropriate formulation vehicles (ethanol, dimethyl sulfoxide, PEG400, glycerol formal etc.), or mixtures thereof. The test substances are then administered to rats or dogs intravenously, orally or subcutaneously. The intravenous application is performed as bolus. Administered doses range usually between 0.1 to 5 mg/kg, however, doses for subcutaneous and oral administration can exceed this range up to doses of 30 mg/kg. Blood samples are retrieved via a catheter, exsanguination or venous puncture in vials containing appropriate anticoagulants, such as lithium heparinate or potassium EDTA. Plasma is generated from the blood via centrifugation. Blood samples are taken over an appropriate time interval, usually lasting up to 144h after administration. If necessary, samples from later time points can also be taken. If possible, time points are chosen so that the initial absorption phase, the maximum plasma concentration (Cmax), and exposure within a certain time interval (AUC(0-t)) are described. Furthermore, it is possible to also retrieve organ-, tissue- and urine samples. The quantitative measurement of the test substances in the samples is performed using calibration curves in the respective matrices. The protein content of the samples is precipitated using acetonitrile or methanol. Thereafter, the samples are separated using HPLC in combination with reversed phase chromatography columns. The HPLC system is coupled to a triple quadrupole mass spectrometer via an electrospray interface. The evaluation of the plasma concentration/time profiles are afterwards evaluated using a validated pharmacokinetics evaluation program. […] Relative bioavailability (Frel) was used to describe the exposure of parent after prodrug administration compared to the exposure of parent after direct administration of compound A which was normalised to 100%.
# Ctenocephalides felis [4] = experiment: Antiparasitic activity after administration to rats, fleas; type: in vivo; details: Ctenocephalides felis, ip, 10 mg/kg, CF A
# Method: as §6
# Dermacentor variabilis [5] = experiment: Antiparasitic activity after administration to dogs, D. variabilis ticks; type: in vivo; details: DV
# Method: as §1, §2, §3, §4, §5
# Ixodes ricinus = experiment: Antiparasitic activity after administration to dogs, I. ricinus ticks; type: in vivo; details: IR
# Method: as §1, §2, §3, §4, §5
# Ctenocephalides felis [6] = experiment: Antiparasitic activity after administration to dogs, fleas; type: in vivo; details: iv, 2 × 5 mg/kg, CF
# Method: as §1, §2, §3, §4, §5
# [7] = iv bolus of the named substance
# [8] = sc administration of the named substance
# [9] = iv, 2 × 5 mg/kg, study 1, month 1
# [10] = iv, 2 × 5 mg/kg, study 1, month 2
# [11] = iv, 2 × 5 mg/kg, study 1, month 3
# [12] = iv, 2 × 5 mg/kg, study 1, month 4
# [13] = iv, 2 × 5 mg/kg, study 1, month 5
# [14] = iv, 2 × 5 mg/kg, study 1, month 6
# [15] = 48 h, study day 2, read-out: Efficacy SD2
# [16] = 216 h, study day 9, read-out: Efficacy SD9
# [17] = 384 h, study day 16, read-out: Efficacy SD16
structure (smiles),measurement,setting,value
"N#CC1(NC(=O)c2cc(-c3cnn(-c4c(Cl)cc(C(F)(C(F)(F)F)C(F)(F)F)cc4OC(F)(F)F)c3)ccc2Cl)CC1 [Parent Compound A, 2-Chlor-5-{1-[2-chlor-4-(1,1,1,2,3,3,3-heptafluorpropan-2-yl)-6-(trifluormethoxy)phenyl]-1H-pyrazol-4-yl}-N-(1-cyanocyclopropyl)benzamide]",AUC(0-72 h)norm of parent compound A,[1]; [7],6.0 kg·h/L
same,AUC(0-384 h)norm of parent compound A,[1]; [8],1.0 kg·h/L
same,% Efficacy in study month 1,"Amblyomma americanum; iv, 2 × 5 mg/kg, study 2, month 1",100%
same,% Efficacy in study month 2,"Amblyomma americanum; iv, 2 × 5 mg/kg, study 2, month 2",99%
same,% Efficacy in study month 3,"Amblyomma americanum; iv, 2 × 5 mg/kg, study 2, month 3",99%
same,% Efficacy in study month 4,"Amblyomma americanum; iv, 2 × 5 mg/kg, study 2, month 4",99%
same,% Efficacy in study month 5,"Amblyomma americanum; iv, 2 × 5 mg/kg, study 2, month 5",95%
same,% Efficacy in study month 6,"Amblyomma americanum; iv, 2 × 5 mg/kg, study 2, month 6",98%
same,% Efficacy in study month 6,"Amblyomma americanum; sc, 5 mg/kg, study 3, month 6",90%
same,% Efficacy in study month 1,Rhipicephalus sanguineus; [9],100%
same,% Efficacy in study month 2,Rhipicephalus sanguineus; [10],100%
same,% Efficacy in study month 3,Rhipicephalus sanguineus; [11],100%
same,% Efficacy in study month 4,Rhipicephalus sanguineus; [12],100%
same,% Efficacy in study month 5,Rhipicephalus sanguineus; [13],100%
same,% Efficacy in study month 6,Rhipicephalus sanguineus; [14],99%
same,% Efficacy in study month 6,"Rhipicephalus sanguineus; sc, 5 mg/kg, study 3, month 6",50%
same,inhibition in vivo at 10 mg/kg,Dermacentor variabilis [2]; [15],96%
same,inhibition in vivo at 10 mg/kg,Dermacentor variabilis [2]; [16],87%
same,inhibition in vivo at 10 mg/kg,Dermacentor variabilis [2]; [17],83%
same,inhibition in vivo at 10 mg/kg,"Dermacentor variabilis [2]; 552 h, study day 23, read-out: Efficacy SD23",93%
same,inhibition in vivo at 10 mg/kg,"Dermacentor variabilis [2]; 720 h, study day 30, read-out: Efficacy SD30",53%
same,inhibition in vivo at 10 mg/kg,"Dermacentor variabilis [2]; 888 h, study day 37, read-out: Efficacy SD37",32%
same,AUC(0-144 h)norm of parent compound A,[3]; [7],11 kg·h/L
same,AUC(0-24)norm of parent compound A,"[3]; po, 20 mg/kg",0.37 kg·h/L
same,AUC(0-144 h)norm of parent compound A,[3]; [8],1.7 kg·h/L
same,pest or weed control at 10 mg/kg,Ctenocephalides felis [4]; [15],84%
same,pest or weed control at 10 mg/kg,Ctenocephalides felis [4]; [16],68%
same,pest or weed control at 10 mg/kg,Ctenocephalides felis [4]; [17],71%
same,% Efficacy in study month 1,Dermacentor variabilis [5]; [9],98%
same,% Efficacy in study month 2,Dermacentor variabilis [5]; [10],99%
same,% Efficacy in study month 3,Dermacentor variabilis [5]; [11],100%
same,% Efficacy in study month 4,Dermacentor variabilis [5]; [12],95%
same,% Efficacy in study month 5,Dermacentor variabilis [5]; [13],98%
same,% Efficacy in study month 6,Dermacentor variabilis [5]; [14],84%
same,% Efficacy in study month 6,"Dermacentor variabilis [5]; sc, 5 mg/kg, study 3, month 6",19%
same,% Efficacy in study month 1,Ixodes ricinus; [9],100%
same,% Efficacy in study month 2,Ixodes ricinus; [10],100%
same,% Efficacy in study month 3,Ixodes ricinus; [11],100%
same,% Efficacy in study month 4,Ixodes ricinus; [12],100%
same,% Efficacy in study month 5,Ixodes ricinus; [13],98%
same,% Efficacy in study month 6,Ixodes ricinus; [14],98%
same,% Efficacy in study month 6,"Ixodes ricinus; sc, 5 mg/kg, study 3, month 6",3%
same,% Efficacy in study month 1,"Ctenocephalides felis [6]; study 1, month 1",100%
same,% Efficacy in study month 2,"Ctenocephalides felis [6]; study 1, month 2",100%
same,% Efficacy in study month 3,"Ctenocephalides felis [6]; study 1, month 3",100%
same,% Efficacy in study month 4,"Ctenocephalides felis [6]; study 1, month 4",100%
same,% Efficacy in study month 5,"Ctenocephalides felis [6]; study 1, month 5",100%
same,% Efficacy in study month 6,"Ctenocephalides felis [6]; study 1, month 6",100%
